Series [1] has as its target T1, Epidermal growth factor receptor (Homo sapiens, UniProt P00533). Put plainly: Inhibition of Epidermal growth factor receptor (EGFr) tyrosine kinase.
Series [2] concerns the target T2, Fibroblast growth factor receptor (Homo sapiens, UniProt P22607+P11362+P22455+P21802). Put plainly: Inhibition of Fibroblast growth factor receptor (FGFr) tyrosine kinase. The series is classed as protein assay.
Series [3] concerns the target Insulin receptor (Homo sapiens, UniProt P06213). As to the kind of experiment: Inhibition of insulin receptor (InsR) tyrosine kinase.
Series [4] concerns the target T3, Platelet-derived growth factor receptor (PDGFr) (Rattus norvegicus, UniProt P20786+Q05030). As to the kind of experiment: Inhibition of platelet derived growth factor (PDGF) stimulated PDGF-receptor autophosphorylation in rat aortic vascular smooth muscle cells (RAVSMCs).
Series [5] addresses T3, Platelet-derived growth factor receptor (PDGFr). Put plainly: Inhibition of Platelet-derived growth factor receptor (PDGFr) tyrosine kinase in rat aortic vascular smooth muscle cells (RAVSMCs).
A short description of series [6]: Inhibition of vascular smooth muscle cell (VSMC) proliferation at day 8. The series is classed as functional. The conditions noted are these: Rattus norvegicus, 192 h.
Series [7] addresses Proto-oncogene tyrosine-protein kinase Src (Homo sapiens, UniProt P12931). As to the kind of experiment: Inhibition of C-src tyrosine kinase.
Series [8] in a line: The half life in rat plasma after intravenous administration. The series is classed as ADME, organism-based.
The target of series [9] is T1, Epidermal growth factor receptor. As to the kind of experiment: Inhibition of epidermal growth factor receptor (EGFr) tyrosine kinase.
The target of series [10] is T2, Fibroblast growth factor receptor. As to the kind of experiment: Inhibition of fibroblast growth factor receptor (FGFr) tyrosine kinase. The series is classed as protein assay.

Where only a bound is given, the exact number is not on record here.

The results in this text go back to ChEMBL document CHEMBL1130094, “Structure-activity relationships for a novel series of pyrido[2,3-d]pyrimidine tyrosine kinase inhibitors” (J Med Chem, 1997).

T1 sequence (P00533 whole entry): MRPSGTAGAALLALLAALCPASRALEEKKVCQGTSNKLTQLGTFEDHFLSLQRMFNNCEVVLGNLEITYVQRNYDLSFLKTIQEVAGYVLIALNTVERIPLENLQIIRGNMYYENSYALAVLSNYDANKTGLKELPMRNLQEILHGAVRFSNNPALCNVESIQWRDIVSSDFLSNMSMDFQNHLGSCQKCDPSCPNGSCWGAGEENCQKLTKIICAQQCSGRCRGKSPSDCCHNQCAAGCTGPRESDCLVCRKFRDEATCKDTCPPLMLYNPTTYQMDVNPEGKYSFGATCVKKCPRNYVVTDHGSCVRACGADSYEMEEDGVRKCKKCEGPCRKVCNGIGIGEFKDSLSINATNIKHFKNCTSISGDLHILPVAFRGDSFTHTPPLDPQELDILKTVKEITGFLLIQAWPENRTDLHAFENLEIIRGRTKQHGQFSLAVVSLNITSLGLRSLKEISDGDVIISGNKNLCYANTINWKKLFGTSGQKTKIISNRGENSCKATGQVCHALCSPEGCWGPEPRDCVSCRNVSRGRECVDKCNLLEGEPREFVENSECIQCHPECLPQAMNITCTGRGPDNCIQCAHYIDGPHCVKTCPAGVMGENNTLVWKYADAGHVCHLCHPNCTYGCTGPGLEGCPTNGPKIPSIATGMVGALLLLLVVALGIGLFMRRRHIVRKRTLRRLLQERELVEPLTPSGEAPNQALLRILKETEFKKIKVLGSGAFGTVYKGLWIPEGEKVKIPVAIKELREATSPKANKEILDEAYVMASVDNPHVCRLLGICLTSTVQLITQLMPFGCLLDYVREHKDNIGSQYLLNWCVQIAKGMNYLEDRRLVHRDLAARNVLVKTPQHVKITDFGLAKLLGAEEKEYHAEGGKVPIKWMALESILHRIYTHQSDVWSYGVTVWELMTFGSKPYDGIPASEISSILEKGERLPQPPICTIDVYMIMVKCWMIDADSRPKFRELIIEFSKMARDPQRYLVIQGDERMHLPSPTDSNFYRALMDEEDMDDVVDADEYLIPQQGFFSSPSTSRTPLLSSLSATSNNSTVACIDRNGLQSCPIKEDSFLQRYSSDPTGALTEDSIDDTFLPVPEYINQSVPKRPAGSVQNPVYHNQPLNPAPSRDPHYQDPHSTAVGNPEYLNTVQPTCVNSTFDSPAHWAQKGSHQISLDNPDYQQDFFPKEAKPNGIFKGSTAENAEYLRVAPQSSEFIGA
Proto-oncogene tyrosine-protein kinase Src, sequence (P12931 2-536 limits assumed): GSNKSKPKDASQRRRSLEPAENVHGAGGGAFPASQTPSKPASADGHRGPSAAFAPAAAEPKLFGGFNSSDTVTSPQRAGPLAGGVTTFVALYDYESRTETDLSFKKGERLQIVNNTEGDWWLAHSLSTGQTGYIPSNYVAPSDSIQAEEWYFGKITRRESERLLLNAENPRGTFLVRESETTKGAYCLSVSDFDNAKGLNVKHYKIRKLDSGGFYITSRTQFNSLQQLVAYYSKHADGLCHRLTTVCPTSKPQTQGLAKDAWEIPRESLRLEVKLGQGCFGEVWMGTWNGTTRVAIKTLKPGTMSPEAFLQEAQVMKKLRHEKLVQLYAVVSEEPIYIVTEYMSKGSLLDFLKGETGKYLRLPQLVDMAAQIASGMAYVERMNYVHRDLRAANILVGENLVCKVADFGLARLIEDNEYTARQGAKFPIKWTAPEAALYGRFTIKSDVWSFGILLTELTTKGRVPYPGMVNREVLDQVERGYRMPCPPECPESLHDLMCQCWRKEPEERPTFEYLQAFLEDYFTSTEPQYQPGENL
Insulin receptor, sequence (P06213 28-758 limits assumed): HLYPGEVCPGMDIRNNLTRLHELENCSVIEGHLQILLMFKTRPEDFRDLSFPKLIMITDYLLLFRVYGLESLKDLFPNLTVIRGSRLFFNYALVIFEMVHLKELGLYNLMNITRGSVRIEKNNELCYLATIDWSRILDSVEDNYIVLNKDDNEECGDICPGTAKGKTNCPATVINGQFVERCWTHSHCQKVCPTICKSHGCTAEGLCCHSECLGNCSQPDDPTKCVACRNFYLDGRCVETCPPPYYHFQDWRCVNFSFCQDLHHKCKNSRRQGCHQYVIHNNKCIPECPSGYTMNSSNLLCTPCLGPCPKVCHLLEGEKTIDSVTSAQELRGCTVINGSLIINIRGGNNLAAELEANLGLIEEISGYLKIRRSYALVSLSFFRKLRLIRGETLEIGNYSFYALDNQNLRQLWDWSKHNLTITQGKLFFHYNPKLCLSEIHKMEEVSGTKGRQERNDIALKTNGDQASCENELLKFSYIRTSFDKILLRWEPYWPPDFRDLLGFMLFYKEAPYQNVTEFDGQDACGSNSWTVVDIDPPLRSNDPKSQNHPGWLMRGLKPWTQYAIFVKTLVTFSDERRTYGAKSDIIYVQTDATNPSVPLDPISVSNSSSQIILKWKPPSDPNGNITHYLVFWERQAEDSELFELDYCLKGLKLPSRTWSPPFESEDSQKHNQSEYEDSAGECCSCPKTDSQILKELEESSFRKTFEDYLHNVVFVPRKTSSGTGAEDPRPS
Insulin receptor, sequence (P06213 763-1382 limits assumed): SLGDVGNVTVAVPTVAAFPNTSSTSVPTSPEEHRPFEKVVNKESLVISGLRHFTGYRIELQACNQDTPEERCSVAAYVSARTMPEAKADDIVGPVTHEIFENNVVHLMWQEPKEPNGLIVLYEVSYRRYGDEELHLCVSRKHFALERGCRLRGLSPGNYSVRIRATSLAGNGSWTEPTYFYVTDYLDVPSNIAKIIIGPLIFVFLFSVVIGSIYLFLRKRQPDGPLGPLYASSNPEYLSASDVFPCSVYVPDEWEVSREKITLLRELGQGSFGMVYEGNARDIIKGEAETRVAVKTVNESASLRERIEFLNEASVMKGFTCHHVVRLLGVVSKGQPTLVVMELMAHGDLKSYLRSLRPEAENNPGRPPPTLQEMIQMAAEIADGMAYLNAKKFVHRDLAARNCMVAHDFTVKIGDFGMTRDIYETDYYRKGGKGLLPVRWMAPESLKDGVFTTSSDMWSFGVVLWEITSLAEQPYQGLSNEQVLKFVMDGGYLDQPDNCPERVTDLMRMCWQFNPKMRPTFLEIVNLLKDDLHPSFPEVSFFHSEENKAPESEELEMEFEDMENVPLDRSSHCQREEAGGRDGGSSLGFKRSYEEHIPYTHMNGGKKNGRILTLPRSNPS

A word on the IC50: it is the concentration needed to halve the response being measured. Lower therefore signals inhibition by little substance. `CCN(CC)CCCNc1ncc2cc(-c3c(Cl)cccc3Cl)c(NC(=O)NC(C)(C)C)nc2n1`: the IC50 was 6.2 µM in [1]; 0.082 µM in [2]; > 50 µM in series [3]; 1.8 µM in series [4]; 0.66 µM in [5].
With `COc1cc(OC)cc(-c2cc3cnc(N)nc3nc2NC(=O)NC(C)(C)C)c1`, in series [2], the IC50 turned out to be 0.06 µM.
With `CCNC(=O)Nc1nc2nc(NCCCCN(CC)CC)ncc2cc1-c1c(Cl)cccc1Cl`, the IC50 stood at 0.25 µM in [4] and 0.19 µM in series [5].
On to `CCNC(=O)Nc1nc2nc(N)ncc2cc1-c1c(Cl)cccc1Cl`, for which the half-inhibitory concentration (IC50) in series [1] was 1.36 µM; in [2], 0.13 µM; in series [3], > 50 µM; in [4], 3.73 µM; in series [5], 1.3 µM.
With `CCN(CC)CCCCNc1ncc2cc(-c3c(Cl)cccc3Cl)c(NC(=O)NC(C)(C)C)nc2n1`, the IC50 was > 50 µM in [3]; 0.3 µM in series [6]; 0.45 µM in [4]; 0.31 µM in series [5]; 0.044 µM in [7].
Consider `Cc1cc(C)c(C)c(-c2cc3cnc(N)nc3nc2NC(=O)NC(C)(C)C)c1C`, for which the IC50 in [3], in series [4], in [5] and in series [7] was > 50 µM each time.
Consider `Cc1cccc(C)c1-c1cc2cnc(N)nc2nc1NC(=O)NC(C)(C)C`, for which the IC50 in [1] was 0.61 µM; in series [2], 0.4 µM; in series [3], > 50 µM.
The term half-life denotes how long it takes for the measured level to halve. Lower therefore signals rapid decline. `CN1CCN(CCCNc2ncc3cc(-c4c(Cl)cccc4Cl)c(NC(=O)NC(C)(C)C)nc3n2)CC1`: the IC50 in [3] is > 50 µM. In [8], this compound showed a half-life of 2.69 h.
Take `CC(C)(C)NC(=O)Nc1nc2nc(N)ncc2cc1-c1c(Cl)cccc1Cl`: the IC50 in [2] is 0.13 µM; in series [3], > 50 µM; in series [4] it was 0.63 µM; in [5], 1.11 µM; in [7], 0.22 µM.
On to `Cc1cc(C)c(C)c(-c2cc3cnc(NCCCN4CCN(C)CC4)nc3nc2NC(=O)NC(C)(C)C)c1C`, for which the IC50 in series [1] is 7 µM; in series [2], 0.14 µM; in [3] it was > 50 µM; in series [4], 4.3 µM; in series [5], > 50 µM; in series [7], 2.2 µM.
Consider `CC(C)(C)NC(=O)Nc1nc2nc(N)ncc2cc1-c1ccccc1`, for which the IC50 in series [9] is 5.53 µM; in [10], 3.71 µM; in series [3] it was > 50 µM; in series [5] it was 4.67 µM; in series [7] it was > 50 µM.
